This test relates to N-myc protein. The test is described as follows: In-cell immunostaining assay for decrease of N-myc protein level in neuroblastoma cells. In kind it is cell-based. The note with it: human neuroblastoma cell lines (Kelly, IMR32, SK-N-BE(2)); treated overnight or up to 3 days; N-myc signal normalized over total protein; read-out: Activity (EC50 for decreasing N-myc protein level). The protocol: Human neuroblastoma cell lines were obtained from either Millipore Sigma, St. Louis, MO (Kelly cells) or American Type Culture Collection, Manassas, VA (IMR32 and SK-N-BE(2) cells). Cells were cultured in RPMI1640 medium (Corning, New York, NY), supplemented with 10% fetal bovine serum, 100 unit/mL penicillin and 100 μg/mL streptomycin (Corning, New York, NY) at 37 degree Celsius with 5% CO2 in air atmosphere. Cells cultured in flat clear bottom, black 96-well plates (Corning, New York, NY) were treated with different concentrations of a compound of the invention, which was dissolved in the culture media (200 μL/well), overnight or up to 3 days. Cells were fixed with 4% paraformaldehyde (in Phosphate-Buffered Saline or PBS, 100 μL/well) for 30 minutes at room temperature. Cells were briefly washed three times with PBS afterwards, and then treated with PBS containing 0.1% Triton X-100 (100 μL/well) for 30 minutes at room temperature. For […], cells were further treated with PBS containing 0.01% IRDye 700DX NHS Ester (LI-COR Biosciences, Lincoln, NE. 100 μL/well) for 30 minutes at room temperature. Cells were again washed three times with PBS, and then treated with a Tris-buffered saline solution with 0.1% Tween 20 (TBST) and 5% non-fat milk (50 μL/well) for 1 hour at room temperature. Cells were then treated with TBST with 5% non-fat milk (50 μL/well) containing a mouse anti N-Myc antibody (Clone B8.4.B, 1:500 dilution, Santa Cruz Biotechnology, Santa Cruz, CA), or a combination of a rabbit anti-Histone H3 (phospho S10) antibody (Clone EPR17246, 1:10000 dilution, abcam, Cambridge, MA) and a mouse anti-Histone H3 antibody (Clone 1G1, 1:250 dilution, Santa Cruz Biotechnology, Santa Cruz, CA) overnight at 4 degree Celsius in the dark. Cells were washed three times with TBST, and then treated with TBST with 5% non-fat milk (50 μL/well) containing an IRDye 800CW donkey anti-mouse IgG antibody (1:1000 dilution, LI-COR Biosciences, Lincoln, NE) for N-myc staining, or IRDye® 800CW donkey anti-rabbit IgG and IRDye 680RD donkey anti-mouse IgG antibodies (1:1000 dilution, LI-COR Biosciences, Lincoln, NE) for Histone H3 (phospho S10) and Histone H3 staining, incubated for 1 hour at room temperature in the dark. Cells were then washed four times with TBST and the plate was scanned using an Odyssey 9120 Imaging System (LI-COR Biosciences, Lincoln, NE). Signals for N-myc, total protein, Histone H3 (phospho S10), and Histone H3 were obtained from the images using the ImageStudio software (Version 4.0.21, LI-COR Biosciences, Lincoln, NE). Normalized signals for N-myc (over total protein), and Histone H3 (phospho S10) (over Histone H3) were plotted in Prism 7 software (GraphPad Software, San Diego, CA). A four-parameter dose-response curve was fitted using a variable slope model and the EC50 was calculated in Prism 7 software (GraphPad Software, San Diego, CA).
Consider `Cc1nc(NC(=O)C2(C(=O)Nc3ccc(F)cc3Cl)CC2)sc1C(=O)Nc1cc(C(F)(F)F)ccc1Cl` [SSTA-0247, N-(2-chloro-4-fluorophenyl)-N-(5-((2-chloro-5-(trifluoromethyl)phenyl)carbamoyl)-4-methylthiazol-2-yl)cyclopropane-1,1-dicarboxamide], for which the 50% effective concentration (EC50) (in general, the midpoint of the concentration-response curve) is more than 1 µM. Turning to `Cc1nc(NC(=O)C2(C(=O)Nc3ccc(F)cc3F)CC2)sc1C(=O)Nc1cc(C(F)(F)F)ccc1Cl` [SSTA-0248, N-(5-((2-chloro-5-(trifluoromethyl)phenyl)carbamoyl)-4-methylthiazol-2-yl)-N-(2,4-difluorophenyl)cyclopropane-1,1-dicarboxamide], the EC50 was more than 1 µM. As to `Cc1nc(NC(=O)C2(C(=O)Nc3cc(C(F)(F)F)ccc3Cl)CC2)sc1C(=O)Nc1cc(C(F)(F)F)ccc1Cl` [SSTA-0250, N-(2-chloro-5-(trifluoromethyl)phenyl)-N-(5-((2-chloro-5-(trifluoromethyl)phenyl)carbamoyl)-4-methylthiazol-2-yl)cyclopropane-1,1-dicarboxamide], the EC50 was 0.25 to 1 µM. As for `Cc1nc(NC(=O)C2(C(=O)Nc3cc(Cl)cc(C(F)(F)F)c3)CC2)sc1C(=O)Nc1cc(C(F)(F)F)ccc1Cl` [SSTA-0251, N-(3-chloro-5-(trifluoromethyl)phenyl)-N-(5-((2-chloro-5-(trifluoromethyl)phenyl)carbamoyl)-4-methylthiazol-2-yl)cyclopropane-1,1-dicarboxamide], the EC50 is 0.25 to 1 µM. On to `Cc1nc(NC(=O)C2(C(=O)Nc3cc(F)ccn3)CC2)sc1C(=O)Nc1cc(C(F)(F)F)ccc1Cl` [SSTA-0252, N-(5-((2-chloro-5-(trifluoromethyl)phenyl)carbamoyl)-4-methylthiazol-2-yl)-N-(4-fluoropyridin-2-yl)cyclopropane-1,1-dicarboxamide], for which the EC50 was more than 1 µM. Regarding `COCc1nc(NC(=O)C2(C(=O)Nc3ccc(Cl)c(F)c3)CC2)sc1C(=O)Nc1cc(C(F)(F)F)ccc1Cl` [SSTA-0262, N-(4-chloro-3-fluorophenyl)-N-(5-((2-chloro-5-(trifluoromethyl)phenyl)carbamoyl)-4-(methoxymethyl)thiazol-2-yl)cyclopropane-1,1-dicarboxamide], the EC50 was 0.25 to 1 µM. With `O=C(Nc1cc(C(F)(F)F)ccc1Cl)c1sc(NC(=O)C2(C(=O)Nc3cc(F)cc(F)c3)CC2)nc1C1CC1` [SSTA-0263, N-(5-((2-chloro-5-(trifluoromethyl)phenyl)carbamoyl)-4-cyclopropylthiazol-2-yl)-N-(3,5-difluorophenyl)cyclopropane-1,1-dicarboxamide] the figure was less than 0.25 µM; with `O=C(Nc1cc(C(F)(F)F)ccc1Cl)c1sc(NC(=O)C2(C(=O)Nc3cc(F)cc(C(F)(F)F)c3)CC2)nc1C1CC1` [SSTA-0264, N-(5-((2-chloro-5-(trifluoromethyl)phenyl)carbamoyl)-4-cyclopropylthiazol-2-yl)-N-(3-fluoro-5-(trifluoromethyl)phenyl)cyclopropane-1,1-dicarboxamide], less than 0.25 µM. With “N-(5-((2-chloro-5-(trifluoromethyl)phenyl)carbamoyl)-4-methylthiazol-2-yl)-N-(3-fluoro-5-(trifluoromethyl)phenyl)cyclopropane-1,1-dicarboxamide [SSTA-0233]” the figure was 0.25 to 1 µM.
